Measurements: publication PMC11166409 (Transfusion Medicine and Hemotherapy, 2024)
Residues, ends and D or L forms follow the SMILES beside them.

Molecular target: HLA-A*02:01 (Homo sapiens, UniProt P04439, D140Y/D185E/D98H/E176V/E277Q/G131W/G231S/I119V/I121R/I166T/I218V/L300P/L318F/N151K/N90K/P208A/P217A/Q86G/Q94H/R138H/R169H/T345S)
Assay: Competition-based peptide binding assay on EBV-LCL48 cells

SMILES | IC50 [µM]
CC[C@H](C)[C@H](NC(=O)[C@@H](N)Cc1ccc(O)cc1)C(=O)N[C@@H](Cc1ccc(O)cc1)C(=O)N[C@@H](CC(N)=O)C(=O)N[C@@H](CCCNC(=N)N)C(=O)N[C@@H](CCC(=O)O)C(=O)N[C@@H](CCC(=O)O)C(=O)N[C@@H](Cc1ccccc1)C(=O)N[C@H](C(=O)O)C(C)C (H-YIYNREEFV-OH) | 4.9
CC[C@H](C)[C@H](NC(=O)[C@@H](N)Cc1ccc(O)cc1)C(=O)N[C@@H](Cc1ccc(O)cc1)C(=O)N[C@@H](CC(N)=O)C(=O)N[C@@H](CCCNC(=N)N)C(=O)N[C@@H](CCC(=O)O)C(=O)N[C@@H](CCC(=O)O)C(=O)N[C@@H](CC(C)C)C(=O)N[C@H](C(=O)O)C(C)C (H-YIYNREELV-OH) | 3.9
